What all share (type): cell-based
The subject of assay [1] is A431 (EGFR-WT). The experiment in a line: Cell proliferation study (CellTiter-Glo, 72 hrs), A431. Conditions: Homo sapiens, A-431, A431 cells, CTG, * = average of multiple measurements. The method, then: (§1) (I) Reagents and Materials
(§2) • Fetal bovine serum FBS (GBICO, Cat #10099-141); • CellTiter-Glo® luminescent cell viability assay kit (Promega, Cat #G7572); • Black transparent flat-bottom 96-well plate (Corning®, Cat #3603). (II) Instruments • SpectraMax multi-label microplate reader MD, 2104-0010A; • Carbon dioxide incubator, Thermo Scientific 3100 series; • Biological safety cabinet, Thermo Scientific, 1300 series model A2; • Inverted microscope, Olympus, CKX41SF; • Siemens refrigerator KK25E76T1. (III) Cell Lines and Culture Conditions
(§3) (IV) Experimental Procedures 1. Cell Culture and Inoculation: • (1) Cells in the logarithmic growth phase were harvested and counted using a […]. The cell viability was determined by the trypan blue dye exclusion method to ensure cell viability above 90%. • (2) The cell concentration was adjusted to reach a desired final density; 90 μL of cell suspension was added to a 96-well plate. • (3) The cells were incubated overnight in the 96-well plate at 37° C., 5% CO2 and with 95% humidity. 2. T0 Benchmark Data: • (1) 10 μL of PBS was added to each well of the TO plate containing the cells. • (2) The CTG reagent was thawed and the cell plate was equilibrated to room temperature for 30 min. • (3) An equal volume of CTG solution was added to each well. • (4) The cells were lysed by shaking on an orbital shaker for 5 min. • (5) The cell plate was left to stand at room temperature for 20 min to stabilize the fluorescence signal. • (6) The fluorescence signal values of TO were read. 3. Dilution and Addition of Compounds • (1) According to the compound information table, a corresponding volume of DMSO was added to the corresponding compound powder to prepare a 10 mM stock solution. • (2) A 1000-fold, 3.16-fold-diluted compound solution was prepared. • (3) The 1000× diluted compound solution was diluted 100-fold with PBS to prepare a 10-fold compound solution with a maximum concentration of 10 μM, including 9 concentrations, with 3.16-fold dilution, and 10 μL of the medicament solution was added to each well of the 96-well plate to seed the cells. Triplicate wells were set for each compound concentration, with a final concentration of DMSO being 0.1%. • (4) The cells were placed in the 96-well plate containing the medicament at 37° C., 5% CO2 and with 95% humidity, and cultured for 72 hrs before CTG analysis. 4. Fluorescence Signal Reading • (1) The CTG reagent was thawed and the cell plate was equilibrated to room temperature for 30 min. • (2) An equal volume of CTG solution was added to each well. • (3) The cells were lysed by shaking on an orbital shaker for 5 min. • (4) The cell plate was left to stand at room temperature for 20 min to stabilize the fluorescence signal. • (5) The fluorescence values were read. 5. Data Processing
(§4) Data were analyzed using GraphPad Prism 7.0 software and fitted data were regressed using non-linear S-curves to obtain dose-response curves from which IC50 values (in nM) were calculated.
For orientation: In ATP-based viability assays light output follows the ATP content of the culture.

The target in assay [2] is Ba/F3 EGFR-V769_D770insASV (Homo sapiens, UniProt P00533, DUP767-769, cells depend on it). The experiment in a line: Cell proliferation study (CellTiter-Glo, 72 hrs), Ba/F3 EGFR-V769_D770insASV. Conditions: CTG, * = average of multiple measurements, read-out: Ba/F3 EGFR-V769_D770insASV IC50. On the procedure:
as §1, §2, §3, §4

For assay [3], the target named is Ba/F3 EGFR-D770-N771ins_SVD (Homo sapiens, UniProt P00533, DUP768-770, cells depend on it). The experiment in a line: Cell proliferation study (CellTiter-Glo, 72 hrs), Ba/F3 EGFR-D770-N771ins_SVD. Conditions: CTG, * = average of multiple measurements, read-out: Ba/F3 EGFR-D770-N771ins_SVD IC50. The gist of the method: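 Cells were seeded overnight, then exposed for 72 hrs at 37 °C, 5% CO2 to 9 concentrations in 3.16-fold steps, 0.1% DMSO final, triplicate wells. Viability was read by CellTiter-Glo luminescence, with a T0 plate read at dosing. IC50 came from nonlinear sigmoidal dose-response fits.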
Chain of Ba/F3 EGFR-D770-N771ins_SVD (P00533 with tags, fused parts or gaps DUP768-770): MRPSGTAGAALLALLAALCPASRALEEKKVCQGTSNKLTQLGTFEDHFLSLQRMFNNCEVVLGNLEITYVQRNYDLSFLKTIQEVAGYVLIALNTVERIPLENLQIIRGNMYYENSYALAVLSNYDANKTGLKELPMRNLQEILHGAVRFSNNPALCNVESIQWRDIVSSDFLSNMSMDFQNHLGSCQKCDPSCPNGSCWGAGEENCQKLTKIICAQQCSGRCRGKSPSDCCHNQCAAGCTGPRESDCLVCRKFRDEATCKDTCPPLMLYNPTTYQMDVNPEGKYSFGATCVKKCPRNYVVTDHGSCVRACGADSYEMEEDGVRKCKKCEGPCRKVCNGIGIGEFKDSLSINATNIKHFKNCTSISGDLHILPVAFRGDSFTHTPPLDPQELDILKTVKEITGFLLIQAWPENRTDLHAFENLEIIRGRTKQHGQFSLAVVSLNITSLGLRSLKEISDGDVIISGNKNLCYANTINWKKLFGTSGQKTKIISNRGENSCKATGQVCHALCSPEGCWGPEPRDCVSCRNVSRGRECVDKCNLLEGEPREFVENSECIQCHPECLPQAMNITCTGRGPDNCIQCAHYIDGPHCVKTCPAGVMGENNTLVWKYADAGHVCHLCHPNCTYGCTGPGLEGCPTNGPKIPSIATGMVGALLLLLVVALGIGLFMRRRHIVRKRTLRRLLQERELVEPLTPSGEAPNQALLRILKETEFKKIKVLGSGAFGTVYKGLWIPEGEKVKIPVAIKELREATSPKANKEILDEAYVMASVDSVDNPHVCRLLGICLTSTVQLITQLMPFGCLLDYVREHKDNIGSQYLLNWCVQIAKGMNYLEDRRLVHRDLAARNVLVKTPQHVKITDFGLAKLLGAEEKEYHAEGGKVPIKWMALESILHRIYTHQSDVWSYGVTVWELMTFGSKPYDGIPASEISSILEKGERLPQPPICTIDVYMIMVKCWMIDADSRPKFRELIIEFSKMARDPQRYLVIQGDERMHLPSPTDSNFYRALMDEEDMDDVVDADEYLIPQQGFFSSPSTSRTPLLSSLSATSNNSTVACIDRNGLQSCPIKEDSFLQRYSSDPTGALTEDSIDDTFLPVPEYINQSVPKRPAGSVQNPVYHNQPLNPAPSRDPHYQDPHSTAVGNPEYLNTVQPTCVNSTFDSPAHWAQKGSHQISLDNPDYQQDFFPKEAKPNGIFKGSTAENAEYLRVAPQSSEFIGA

Chain of Ba/F3 EGFR-V769_D770insASV (P00533 with tags, fused parts or gaps DUP767-769): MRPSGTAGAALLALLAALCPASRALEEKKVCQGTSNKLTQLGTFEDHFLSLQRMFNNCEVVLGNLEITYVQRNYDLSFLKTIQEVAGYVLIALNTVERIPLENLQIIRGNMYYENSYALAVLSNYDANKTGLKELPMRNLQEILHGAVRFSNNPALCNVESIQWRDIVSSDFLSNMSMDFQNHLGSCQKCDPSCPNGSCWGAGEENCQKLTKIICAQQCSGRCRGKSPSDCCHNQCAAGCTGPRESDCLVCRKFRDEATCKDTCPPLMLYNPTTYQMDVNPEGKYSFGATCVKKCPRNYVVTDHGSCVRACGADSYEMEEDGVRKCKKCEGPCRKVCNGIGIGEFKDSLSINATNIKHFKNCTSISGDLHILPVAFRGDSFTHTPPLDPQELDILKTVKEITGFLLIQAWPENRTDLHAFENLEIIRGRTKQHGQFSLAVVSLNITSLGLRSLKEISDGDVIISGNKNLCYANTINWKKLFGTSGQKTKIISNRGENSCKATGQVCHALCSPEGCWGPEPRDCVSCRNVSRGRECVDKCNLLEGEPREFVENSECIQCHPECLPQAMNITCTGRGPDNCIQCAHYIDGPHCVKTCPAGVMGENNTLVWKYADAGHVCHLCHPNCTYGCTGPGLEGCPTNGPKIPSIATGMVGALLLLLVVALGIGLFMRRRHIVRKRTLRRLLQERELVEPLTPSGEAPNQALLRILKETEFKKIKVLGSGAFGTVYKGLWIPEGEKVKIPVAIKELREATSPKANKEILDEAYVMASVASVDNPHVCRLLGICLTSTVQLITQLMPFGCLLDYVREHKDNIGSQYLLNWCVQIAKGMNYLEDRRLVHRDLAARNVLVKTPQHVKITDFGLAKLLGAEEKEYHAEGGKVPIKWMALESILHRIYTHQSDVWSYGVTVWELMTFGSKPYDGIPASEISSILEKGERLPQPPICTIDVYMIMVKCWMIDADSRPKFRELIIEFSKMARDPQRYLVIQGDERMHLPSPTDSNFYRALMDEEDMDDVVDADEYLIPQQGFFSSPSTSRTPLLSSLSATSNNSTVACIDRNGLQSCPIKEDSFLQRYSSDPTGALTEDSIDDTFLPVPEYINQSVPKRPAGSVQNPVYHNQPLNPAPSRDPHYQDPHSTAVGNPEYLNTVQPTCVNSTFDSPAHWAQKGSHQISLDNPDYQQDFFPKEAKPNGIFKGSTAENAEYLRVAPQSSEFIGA

A word on the IC50: it is the concentration needed to halve the response being measured. A low value points to inhibition by little substance. Consider `C=CC(=O)Nc1cc(Nc2ncc(C(=O)OC(C)C)c(N3CC(C)(C)c4nc(C=C)ccc43)n2)c(OC)cc1N(C)CCN(C)C` [Example 20, isopropyl 2-((5-acrylamido-4-((2-(dimethylami-no)ethyl)(methyl)amino)-2-methoxy-phenyl)amino)-4-(3,3-dimethyl-5-vinyl-2,3-dihydro-1H-pyrrolo[3,2-b]pyridin-1-yl)pyrimidine-5-carboxylate], for which the IC50 in assay [1] stood at 746 nM. Also, the GI50 in assay [2] amounted to 66.6 nM; in assay [3], 34.3 nM.
Taken in the same sequence, the figures for `C=CC(=O)Nc1cc(Nc2ncc(C(=O)OC(C)C)c(N3CC4(CC4)c4ncccc43)n2)c(OC)cc1N(C)CCN(C)C` [Example 21, isopropyl 2-((5-acrylamido-4-((2-(dimethylami-no)ethyl)(methyl)amino)-2-methoxy-phenyl)amino)-4-(spiro(cyclopropane-1,3′-pyrrolo[3,2-b]pyridin)-1′(2′H)-yl)pyrimidine-5-carboxylate] were 404 nM, 56.8 nM and 24.6 nM.
Taken in the same sequence, the figures for `C=CC(=O)Nc1cc(Nc2ncc(C(=O)OC(C)C)c(N3CC4(CC4)c4nc(C)ccc43)n2)c(OC)cc1N(C)CCN(C)C` [Example 22, isopropyl 2-((5-acrylamido-4-((2-(dimethylami-no)ethyl)(methyl)amino)-2-methoxy-phenyl)amino)-4-(5′-methylspiro(cyclo-propane-1,3′-pyrrolo[3,2-b]pyridin)-1′(2′H)-yl)pyrimidine-5-carboxylate] were 127 nM, 48.8 nM and 20.6 nM.
In turn, `C=CC(=O)Nc1cc(Nc2ncc(C(=O)OC(C)C)c(N3CC4(CC4)c4nc(C)ccc43)n2)c(OC)cc1N(C)CCNC` [Example 25, isopropyl 2-((5-acrylamido-2-methoxy-4-(methyl(2-(methylamino)ethyl)ami-no)phenyl)amino)-4-(5′-methyl-spiro(cyclopropane-1,3′-pyrrolo[3,2-b]pyridin)-1′(2′H)-yl)pyrimidine-5-carboxylate] had a concentration for half-maximal inhibition (IC50) in assay [1] of 222 nM. Besides, the GI50 in assay [2] stood at 53.8 nM; in assay [3], 34.2 nM.
Turning to `C=CC(=O)Nc1cc(Nc2ncc(C(=O)OC(C)C)c(N3CC4(CC4)c4nc(C)ccc43)n2)c(OC)cc1N1CC[C@@H](N(C)C)C1` [Example 26, isopropyl (R)-2-((5-acrylamido-4-(3-(dimethyl-amino)pyrrolidin-1-yl)-2-methoxy-phenyl)amino)-4-(5′-methyl-spiro(cyclopropane-1,3′-pyrrolo[3,2-b]pyridin)-1′(2′H)-yl)pyrimidine-5-carboxylate], in assay [1], 363 nM corresponded to half-maximal inhibition (IC50). Further, the values for the GI50 in assay [2] and in assay [3] were 52.8 nM and 29.7 nM, respectively.
Taken in the same sequence, the figures for `C=CC(=O)Nc1cc(Nc2ncc(C(=O)OC(C)C)c(N3CC(C)(C)c4nc(C)ccc43)n2)c(OC)nc1N(C)CCN(C)C` [Example 29, isopropyl 2-((5-acrylamido-6-((2-(dimethylami-no)ethyl)(methyl)amino)-2-methoxy-pyridin-3-yl)amino)-4-(3,3,5-trimethyl-2,3-dihydro-1H-pyrrolo[3,2-b]pyridin-1-yl)pyrimidine-5-carboxylate] were 282 nM, 16 nM and 13.3 nM.
In turn, `C=CC(=O)Nc1cc(Nc2ncc(C(=O)OC(C)C)c(N3CC(C)(C)c4nc(C#CC)ccc43)n2)c(OC)cc1N(C)CCN(C)C` [Example 30, isopropyl 2-((5-acrylamido-4-((2-(dimethylami-no)ethyl)(methyl)amino)-2-methoxy-phenyl)amino)-4-(3,3-dimethyl-5-(prop-1-yn-1-yl)-2,3-dihydro-1H-pyrrolo[3,2-b]pyridin-1-yl)pyrimidine-5-carboxylate] had an IC50 in assay [1] of 557 nM. Moreover, the GI50 is 21.5 nM in assay [2] and 7.6 nM in assay [3].
The matching figures for `C=CC(=O)Nc1cc(Nc2ncc(C(=O)OC(C)C)c(N3CC(C)(C)c4nc(C)ccc43)n2)c(OC)nc1N1CCC[C@@H]1CN(C)C` [Example 31, isopropyl (R)-2-((5-acrylamido-6-(2-((dimethyl-amino)methyl)pyrrolidin-1-yl)-2-meth-oxypyridin-3-yl)amino)-4-(3,3,5-tri-methyl-2,3-dihydro-1H-pyrrolo[3,2-b]pyridin-1-yl)pyrimidine-5-carboxylate]: 183 nM, 13.9 nM and 11.8 nM.
Compound `[2H]C([2H])([2H])N(CCN(C)C)c1cc(OC)c(Nc2ncc(C(=O)OC(C)C)c(N3CC(C)(C)c4nc(C)ccc43)n2)cc1NC(=O)C=C` [Example 36, isopropyl 2-((5-acrylamido-4-((2-(dimethylami-no)ethyl)(methyl-d3)amino)-2-methoxy-phenyl)amino)-4-(3,3,5-trimethyl-2,3-dihydro-1H-pyrrolo[3,2-b]pyridin-1-yl)pyrimidine-5-carboxylate] displayed a 50% inhibitory concentration (IC50) in assay [1] of 353 nM. The GI50 in assay [2] is 22.8 nM; in assay [3] it was 14.8 nM.
Compound `C=CC(=O)Nc1cc(Nc2ncc(C(=O)OC(C)C)c(N3CC(C)(C)c4nc(C)ccc43)n2)c(OC)cc1N1CC(N(C)C)C1` [Example 40, isopropyl 2-((5-acrylamido-4-(3-(dimethylami-no)azetidin-1-yl)-2-methoxyphenyl)ami-no)-4-(3,3,5-trimethyl-2,3-dihydro-1H-pyrrolo[3,2-b]pyridin-1-yl)pyrimidine-5-carboxylate] came in with a 50% inhibitory concentration (IC50) in assay [1] of 295 nM. For the same compound, the GI50 in assay [2] was determined as 44.2 nM; in assay [3] it was 33.9 nM.
On to `[2H]C([2H])([2H])N(CCN(C)c1cc(OC)c(Nc2ncc(C(=O)OC(C)C)c(N3CC(C)(C)c4nc(C)ccc43)n2)cc1NC(=O)C=C)C([2H])([2H])[2H]` [Example 42, isopropyl 2-((5-acrylamido-4-((2-(bis(methyl-d3)amino)ethyl)(methyl)amino)-2-methoxyphenyl)amino)-4-(3,3,5-trimethyl-2,3-dihydro-1H-pyrrolo[3,2-b]pyridin-1-yl)pyrimidine-5-carboxylate], for which, in assay [1], the 50% inhibitory concentration (IC50) stood at 114 nM. In addition, the GI50 worked out at 23.6 nM in assay [2] and 11.3 nM in assay [3].
Compound `C=CC(=O)Nc1cc(Nc2ncc(C(=O)OC(C)C)c(N3CC4(CC4)c4nc(C)ccc43)n2)c(OC)cc1N(C)C[C@@H]1CCCN1C` [Example 44, isopropyl (S)-2-((5-acrylamido-2-methoxy-4-(methyl((1-methylpyrrolidin-2-yl)methyl)amino)phenyl)amino)-4-(5′-methylspiro(cyclopropane-1,3′-pyrrolo[3,2-b]pyridin)-1′(2′H)-yl)pyrimidine-5-carboxylate] showed a 50% inhibitory concentration (IC50) in assay [1] of 235 nM. Further, the values for the GI50 in assay [2] and in assay [3] were 76.5 nM and 30.4 nM, respectively.
Taken in the same sequence, the figures for `C=CC(=O)Nc1cc(Nc2ncc(C(=O)OC(C)C)c(N3CC(C)(C)c4nc(C)ccc43)n2)c(OC)nc1N(C)C[C@@H]1CCCN1C` [Example 46, isopropyl (S)-2-((5-acrylamido-2-methoxy-6-(methyl((1-methylpyrrolidin-2-yl)methyl)amino)pyridin-3-yl)amino)-4-(3,3,5-trimethyl-2,3-dihydro-1H-pyrrolo[3,2-b]pyridin-1-yl)pyrimidine-5-carboxylate] were 270 nM, 33.5 nM and 20.5 nM.

Source of the values: patent US12692264B2, “Pyrimidine or pyridine derivative, preparation method therefor, and application thereof in pharmacy” (ABBISKO THERAPEUTICS CO., LTD., priority 2021, dated 2026).
